Test results taken from patent US20240252527A9, “NUCLEOSIDE DRUGS FOR THE TREATMENT OR PREVENTION OF CORONAVIRUS INFECTION AND THEIR USES” (Miracure Biotechnology Limited, priority 2022, published 2024).
Like-named read-outs stand apart in the source and are kept apart here.

Tests used:
OC43 = OC43 Huh7 CPE assay (cytopathic experiment); assay type: cell-based, coronavirus OC43 (HCoV-OC43); conditions: Betacoronavirus 1, OC43, Huh-7, 168 h; for EC50: read-out: OC43 Huh7 CPE assay (μM) EC50; for EC90: read-out: OC43 Huh7 CPE assay (μM) EC90
Protocol: (§1) Cells were seeded into microplates at a certain density and cultured overnight in a incubator at 5% CO2, 37° C. The next day, double-diluted compound and virus were added. It was set up a cell control group (cells without treatment with a compound or virus infection), a virus control group (cells infected with virus, no compound treatment) and a culture medium control group (medium only). Cells were cultured in the incubator for 3 days (229E) or 7 days (OC43). Cytotoxicity experiments were performed under the same conditions as antiviral experiments, but without virus infection. Cell viability was tested using a cell viability assay kit Cell Titer Glo (Promega).
(§2) The antiviral activity and cytotoxicity of the compounds were expressed by the inhibition rate (%) and cell viability (%) of the compounds against virus-induced cytopathic effects at different concentrations, respectively. Nonlinear fitting analysis on the inhibition rate and cell viability of the compounds were carried out with the GraphPad Prism, and the half effective concentration (EC50), the […] effective concentration (EC90), the half cytotoxic concentration (CC50) and the 90% cytotoxic concentration of the compound […] values were calculated.

229E = 229E MRC5 CPE assay (cytopathic experiment); assay type: cell-based, coronavirus 229E (HCoV-229E)
Protocol: as §1, §2

[1] = Human coronavirus 229E, MRC5, 72 h; read-out: 229E MRC5 CPE assay (μM) EC50
[2] = Human coronavirus 229E, MRC5, 72 h; read-out: 229E MRC5 CPE assay (μM) EC90
[3] = Human coronavirus 229E, MRC5, 72 h, read-out: 229E MRC5 CPE assay (μM) EC50
[4] = Human coronavirus 229E, MRC5, 72 h, read-out: 229E MRC5 CPE assay (μM) EC90

Row | Compound | EC50 (OC43) | EC90 (OC43) | EC50 (229E; [1]) | EC90 (229E; [2]) | EC50 (229E; [3]) | EC90 (229E; [4])
1 | CCCC(CCC)C(=O)OCO[P@@]1(=S)OC[C@H]2O[C@@](C#N)(c3ccc4c(N)ncnn34)[C@H](O)[C@@H]2O1 [Compound 144] | > 0.5 µM | > 0.5 µM | > 0.5 µM | > 0.5 µM | – | –
2 | CC(C)OC(=O)OCO[P@@]1(=O)OC[C@H]2O[C@@](C#N)(c3ccc4c(N)ncnn34)[C@H](O)[C@@H]2O1 [Compound 145] | 0.1 to 0.5 µM | 0.1 to 0.5 µM | – | – | < 0.1 µM | 0.1 to 0.5 µM
3 | CCCN(CCC)S(=O)(=O)c1ccc(C(=O)OCOP(=O)(NC(C)(C)C(=O)OC(C)C)OC[C@H]2O[C@@](C#N)(c3ccc4c(N)ncnn34)[C@H](O)[C@@H]2O)cc1 (stereo partly drawn) [Compound 163] | > 0.5 µM | > 0.5 µM | – | – | > 0.5 µM | > 0.5 µM
4 | CCCC(CCC)C(=O)OCOP(=O)(NC(C)(C)C(=O)OC(C)C)OC[C@H]1O[C@@](C#N)(c2ccc3c(N)ncnn23)[C@H](O)[C@@H]1O (stereo partly drawn) [Compound 034] | 0.1 to 0.5 µM | > 0.5 µM | – | – | 0.1 to 0.5 µM | > 0.5 µM
5 | CCC(CC)COC(=O)[C@H](C)NP(=O)(OCOC(=O)c1cccnc1)OC[C@H]1O[C@@](C#N)(c2ccc3c(N)ncnn23)[C@H](O)[C@@H]1O (stereo partly drawn) [Compound 175] | > 0.5 µM | > 0.5 µM | – | – | > 0.5 µM | > 0.5 µM
6 | CCCC(CCC)C(=O)OCO[P@](=O)(N[C@@H](Cc1ccccc1)C(=O)OCC)OC[C@H]1O[C@@](C#N)(c2ccc3c(N)ncnn23)[C@H](O)[C@@H]1O [Compound 137] | < 0.1 µM | < 0.1 µM | – | – | < 0.1 µM | 0.1 to 0.5 µM
7 | N#C[C@@]1(c2ccc3c(N)ncnn23)O[C@H](COP(=O)(OCOC(=O)OC2CCC2)OCOC(=O)OC2CCC2)[C@@H](O)[C@H]1O [Compound 276] | 0.1 to 0.5 µM | > 0.5 µM | – | – | 0.1 to 0.5 µM | > 0.5 µM
8 | CC(C)(C)C(=O)OCO[P@]1(=O)OCC2O[C@@](C#N)(c3ccc4c(N)ncnn34)[C@H](O)[C@@H]2O1 (stereo partly drawn) [Compound 198] | > 0.5 µM | > 0.5 µM | – | – | 0.1 to 0.5 µM | > 0.5 µM
9 | [2H]c1cc([C@]2(C#N)O[C@@H]3CO[P@@](=O)(O)O[C@H]3[C@H]2OC(=O)C(CCC)CCC)n2ncnc(N)c12 [Compound 209] | > 0.5 µM | 0.1 to 0.5 µM | – | – | > 0.5 µM | > 0.5 µM
10 | CCCC(CCC)C(=O)O[C@@H]1[C@@H]2OP(=O)(O)OC[C@H]2O[C@@]1(C#N)c1ccc2c(N)ncnn12 [Compound 057] | 0.1 to 0.5 µM | > 0.5 µM | – | – | > 0.5 µM | > 0.5 µM
11 | N#C[C@@]1(c2ccc3c(N)ncnn23)O[C@@H]2CO[P@](=O)(OCOC(=O)C3CCCC3)O[C@H]2[C@H]1O [Compound 261] | > 0.5 µM | > 0.5 µM | – | – | 0.1 to 0.5 µM | > 0.5 µM
12 | N#C[C@@]1(c2ccc3c(N)ncnn23)O[C@@H]2CO[P@](=O)(OCOC(=O)CCCc3ccccc3)O[C@H]2[C@H]1O [Compound 263] | 0.1 to 0.5 µM | > 0.5 µM | – | – | < 0.1 µM | < 0.1 µM
13 | CCCC(CCC)C(=O)OCO[P@](=O)(OC[C@H]1O[C@@](C#N)(c2ccc3c(N)ncnn23)[C@H](O)[C@@H]1O)Oc1cccc2ccccc12 [Compound 225] | > 0.5 µM | > 0.5 µM | > 0.5 µM | > 0.5 µM | – | –
14 | CC(C)OC(=O)C(C)(C)N[P@@](=O)(OCOC(=O)C1CCCC1)OC[C@H]1O[C@@](C#N)(c2ccc3c(N)ncnn23)[C@H](O)[C@@H]1O [Compound 267] | > 0.5 µM | > 0.5 µM | – | – | > 0.5 µM | > 0.5 µM
15 | CCCC(CCC)C(=O)OCNc1ncnn2c([C@]3(C#N)O[C@H](COP(=O)(OCOC(=O)C(CCC)CCC)OCOC(=O)C(CCC)CCC)[C@@H](O)[C@H]3O)ccc12 [Compound 155] | > 0.5 µM | > 0.5 µM | – | – | 0.1 to 0.5 µM | > 0.5 µM
16 | N#C[C@@]1(c2ccc3c(N)ncnn23)O[C@@H]2CO[P@](=O)(OCOC(=O)Oc3ccccc3)O[C@H]2[C@H]1O [Compound 228] | > 0.5 µM | > 0.5 µM | – | – | > 0.5 µM | > 0.5 µM
17 | N#C[C@@]1(c2ccc3c(N)ncnn23)O[C@H](COP(=O)(OCOC(=O)C2CCCC2)OCOC(=O)C2CCCC2)[C@@H](O)[C@H]1O [Compound 265] | – | – | – | – | > 0.5 µM | > 0.5 µM
